From patent publication US9657046B2, “Methods for the treatment and prevention of inflammatory diseases” (Children's Medical Center Corporation, priority 2010, dated 2017)

Tested on: pulmonary NKT cells
Experiment: Lung NKT cell subsets (CD4+, DN) by FACS after i.p. glycolipid in 2 week-old mice
Format: in vivo, mouse
Settings: i.p. PI57 50 μg or α-GalCer 2 μg, lung 2 wks later
Method: In FIGS. 6A-6B, two-week-old BALB/c mice (n=6-8/group) (6A) or Tbet^−/− mice (6B) (n=4-6 per group) received 5 μg […] (cGal), 2 μg α-GalCer, or vehicle. After OVA sensitization and challenge, AHR was measured on day 44. In FIG. 6C, donor mice were treated with α-C-GalCer (5 μg) or vehicle i.p. NKT cells served as donors, as in FIG. 4A (n=4 per group). Lung resistance (left) and cell counts in BAL (right) were assessed. […] In FIG. 6E, mice received PI57 (50 μg), α-GalCer (2 μg), or vehicle i.p., and lungs were examined 1 or 14 days later for CD4 and CD8 expression. In FIG. 6F, absolute numbers of CD4^+ NKT and DN NKT subsets from 6E were assessed. In FIG. 6G, BALB/c mice (n=5-8/group) received PI57 or vehicle i.p. Lung resistance (left) and BAL cells (right) were assessed. In FIG. 6H, BALB/c mice treated with PI57 (50 μg), PBS30 (Sphingomonas glycolipid) (50 μg), or vehicle i.p. were assessed for AHR as in 6G. In FIG. 6I, donor mice were treated with PI57 (50 μg) or vehicle i.p. NKT cells served as donors as in FIG. 4A. Lung resistance (left) and BAL cells (right) were assessed (n=4 per group). […]
Cells were preincubated with anti-Fey blocking mAb (2.4G2) and washed before staining. […] Cells were analyzed on a BDCanto flow cytometer (BD Biosciences) using FlowJo 8.3.3 software (Tree Star, Inc.).

SMILES: CCCCCCCCCCCCCC(=O)OC[C@H]1O[C@H](O[C@H]2CC[C@@]3(C)C(=CC[C@H]4[C@@H]5CC[C@H]([C@H](C)CCCC(C)C)[C@@]5(C)CC[C@@H]43)C2)[C@H](O)[C@@H](O)[C@@H]1O [PI57, Cholesteryl 6-O-tetradecanoyl-α-D-glucopyranoside]
- number of NKT cells (CD4+ and DN subsets) in the lung: increased the total number of NKT cells, particularly the number of DN NKT cells
